Source: patent US20110104301A1, “METHODS OF REDUCING PAIN AND INFLAMMATION” (Georgetown University, A Congressionally Chartered …, priority 2008, published 2011)

System: DRG neurons
Experiment: Ca2+ imaging in DRG neurons from wild-type mice
Type: cell-based, mouse
Conditions: 1.5 mM, 3 MAC
Experimental: Ca^2+ Imaging. Neurons were loaded with 1 μM Fluo4-AM (Molecular Probes) for 20 min and washed for a further 10-20 min before recording. The dye was excited at 488±15 nm. Emitted fluorescence was filtered with a 535±25 nm bandpass filter, captured by a SPOT RT digital camera (Diagnostic Instruments) and read into a computer. Analysis was performed offline by using Simple PCI software (Compix Inc.).

In the case of `FC(F)OC(F)C(F)(F)F` (stereo not shown) [desflurane], the “Neurons with evoked Ca2+ increase” value was 36 of 123.
